Experimental data published in ChEMBL document CHEMBL4145566, “Isoindolinones, Phthalides, and a Naphthoquinone from the Fruiting Body of Daldinia concentrica” (J Nat Prod, 2018).

Tested on: HUVEC
Assay: Antiangiogenic activity in HUVEC assessed as inhibition of cell proliferation after 18 hrs by WST-8 reagent based assay
Assay type: functional
Conditions: Homo sapiens

Question: Which IC50 does the source give for `C=C1[C@@H](C)[C@H]2[C@H](Cc3ccccc3)NC(=O)[C@]23OC(=O)/C=C/[C@@H](O)CCC[C@@H](C)C/C=C/[C@H]3[C@@H]1O` here?
Answer: 0.2 µM

Question: For `COc1cccc2c1C(=O)C(=O)C=C2c1ccc(O)c2c(OC)cccc12`, which IC50 is on record?
Answer: 7.5 µM
